Tested on: rat islets of Langerhans
Test: glucose-stimulated insulin secretion by isolated islets of Langerhans
Format: cell-based
Details: glucose 10 mmol/L
Method: All experiments were performed by known methods used in experimental practice. See, e.g., Lacey P. E., and Kostianovsky M, Method for the isolation of intact islets of Langerhans from the rat pancreas. Diabetes 1967; 16: 35-39.
Briefly, rats were killed, and islets of Langerhans were isolated from their pancreases. Experiments were performed either with freshly isolated islets or after overnight incubation of islets (23 h) in standard culture medium and conditions at 37° C. […] Incubation of islets for these experiments was carried out in standard Krebs-Heinsleit buffer, and it was verified that the addition of the 1.0 mmol/L citrate buffer had no effect on the pH of the incubation medium. Stimulation of islets was carried out at the standard stimulatory glucose concentration of 10 mmol/L.
Production of insulin is expressed as μU/islet/h. All experiments were performed with five replicates per point. The integrity of the islet response was assessed by comparing the responses after stimulation of different aliquots of islets by two and ten mmol/L glucose, respectively, and the strength of the inhibitory response was judged against that induced by 1 μg/ml (650 nmol/L) somatostatin. […] See Arimura A. Biomed res 1981; 2: 233-257. […] See Petterson M., Ahren B., Bottcher G., Sundler F., Endocrinology 1986; 119: 865-869.
The results are shown in TABLE 5 below and all results are expressed as ± standard error of the mean (s.e.m.). The significance of differences between the means of groups is assessed by the t-test. The result of stimulation by 10 mmol/L glucose is compared with the results of stimulation at 2 mmol/L glucose. In all other experimental conditions, the significance of the inhibitory effect is measured against the effect of 10 mmol/L glucose alone.

| Compound | INSULIN PRODUCTION Mean Value (substance 650 nmol/L) [μU/islet/hr] | RELATIVE INSULIN SECRETION INHIBITION (substance 650 nmol/L) [%] | INSULIN PRODUCTION Mean Value (substance 10 nmol/L) [μU/islet/hr] | RELATIVE INSULIN SECRETION INHIBITION (substance 10 nmol/L) [%] | INSULIN PRODUCTION Mean Value (substance 100 nmol/L) [μU/islet/hr] | RELATIVE INSULIN SECRETION INHIBITION (substance 100 nmol/L) [%] | INSULIN PRODUCTION Mean Value (substance 1000 nmol/L) [μU/islet/hr] | RELATIVE INSULIN SECRETION INHIBITION (substance 1000 nmol/L) [%] |
| --- | --- | --- | --- | --- | --- | --- | --- | --- |
| C[C@H](N)C(=O)NCC(=O)N[C@H]1CSSC[C@@H](C(=O)O)NC(=O)[C@H](CO)NC(=O)[C@H]([C@@H](C)O)NC(=O)[C@H](Cc2ccccc2)NC(=O)[C@H]([C@@H](C)O)NC(=O)[C@H](CCCCN)NC(=O)[C@H](Cc2c[nH]c3ccccc23)NC(=O)[C@H](Cc2ccccc2)NC(=O)[C@H](Cc2ccccc2)NC(=O)[C@H](CC(N)=O)NC(=O)[C@H](CCCCN)NC1=O [Somatostatin, reference compound] | 44 | 45 |  |  |  |  |  |  |
| CGRP 27-37 |  |  | 36 | 55 | 36 | 55 | 46 | 42 |
